Assay results: paper PMC3834726 (Clinical cancer research : an official journal of the …, 2012)
Read-outs that look alike come from different tables or passages of the source.

How the values were obtained:
blood 20S proteasome = assay: Pharmacodynamics: blood 20S proteasome activity; type: in vivo, human
advanced malignancies = assay: Tumor response; type: in vivo, human
[1] = human, in vivo
[2] = potent inhibitor of CYP2C19; cited from earlier work
[3] = including patients on dialysis; cited from earlier work

CC(C)C[C@H](NC(=O)[C@H](Cc1ccccc1)NC(=O)c1cnccn1)B(O)O [bortezomib, Bortezomib]
Magnitude of percent inhibition of blood 20S proteasome activity (blood 20S proteasome; 0.5 mg/m^2, severe hepatic impairment (data not shown)): lower than that observed at the higher dose levels
Time of maximum mean percent inhibition of blood 20S proteasome activity (blood 20S proteasome; across dose levels and hepatic function groups, first post-dose time point): 1 h
Mean percent inhibition of 20S proteasome activity at 24 hours post dose (blood 20S proteasome; normal hepatic function group, 1.3 mg/m^2, day 1): approximately 31%
Patients achieving stable disease (advanced malignancies; all hepatic function groups): five
Patients with progressive disease as best response (advanced malignancies; all patients): 35
Study discontinuation due to disease progression (advanced malignancies; all patients): 37 (61%) n (%)
Study discontinuation due to disease progression (advanced malignancies; mild impairment group): 11 (65%) n (%)
Study discontinuation due to disease progression (advanced malignancies; moderate impairment group): 9 (75%) n (%)
Study discontinuation due to disease progression (advanced malignancies; normal function group): 8 (57%) n (%)
Study discontinuation due to disease progression (advanced malignancies; severe impairment group): 9 (50%) n (%)
Disposition kinetics [1]: multi-exponential disposition kinetics
Dose calculated to match exposures at 1.3 mg/m^2 in normal hepatic function [1]: approximately 0.8 mg/m^2
Increase in dose-normalized AUC (systemic exposure) [1]: approximately 60%
Increase in mean dose-normalized AUC0-tlast [1]: approximately 60%
Observed mean increase in dose-normalized AUC relative to normal hepatic function group [1]: 1.6 fold
Deaths during the study (all patients): 15
Died during treatment (reason for study discontinuation) (all patients): 2 (3%) n (%)
On-study deaths (all patients, N=61): 15 (25) n (%)
Deaths due to disease progression (all patients, of 15 deaths): 12
Anorexia, any grade (human, in vivo): 19 (31) n (%)
Any AE (human, in vivo): 59 (97) n (%)
Any drug-related AE (human, in vivo): 40 (66) n (%)
Any grade ≥3 AE (human, in vivo): 49 (80) n (%)
Any grade ≥4 AE (human, in vivo): 22 (36) n (%)
Any serious AE (human, in vivo): 28 (46) n (%)
Decreased platelet count, any grade (human, in vivo): 18 (30) n (%)
Decreased platelet count, grade ≥3 (human, in vivo): 7 (11) n (%)
Discontinuation due to grade 3 hypotension (human, in vivo): 1 patient
Discontinuation due to grade 4 elevated blood bilirubin (human, in vivo): 2 patients
Dyspnea, any grade (human, in vivo): 19 (31) n (%)
Elevated AST, incidence (human, in vivo): 7%
Elevated blood bilirubin, rate (human, in vivo): 7%
Fatigue, any grade (human, in vivo): 31 (51) n (%)
Fatigue, grade ≥3 (human, in vivo): 9 (15) n (%)
Increased AST, grade ≥3 (human, in vivo): 6 (10) n (%)
Increased blood bilirubin, grade ≥3 (human, in vivo): 7 (11) n (%)
Nausea, any grade (human, in vivo): 24 (39) n (%)
Rate of grade ≥3 AEs (human, in vivo): 71%
Rate of grade ≥4 AEs (human, in vivo): 14%
Dose-limiting toxicity (DLT) (in vivo): none of these events met the protocol-defined criteria for DLT
Relation of elevations in liver function test parameters to drug (in vivo): not considered to be drug-related
On-study deaths (mild impairment, 1.0 mg/m^2, n=6): 0 n (%)
On-study deaths (mild impairment, 1.3 mg/m^2, n=11): 4 (36) n (%)
On-study deaths (moderate impairment, 0.7 mg/m^2, n=9): 2 (22) n (%)
On-study deaths (moderate impairment, 1.0 mg/m^2, n=3): 0 n (%)
On-study deaths (normal hepatic function, 1.3 mg/m^2, N=14): 2 (14) n (%)
On-study deaths (severe impairment, 0.5 mg/m^2, n=5): 2 (40) n (%)
On-study deaths (severe impairment, 0.7 mg/m^2, n=6): 3 (50) n (%)
On-study deaths (severe impairment, 1.0 mg/m^2, n=7): 2 (29) n (%)
Bortezomib exposure on co-administration of omeprazole [2]: unaffected
Pharmacokinetics in varying grades of renal impairment [3]: not altered
